Test results published in PubChem BioAssay (NCI).
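Step 1: Grow cells in 96-well plates. Step 2: Expose to compound for 48 hours at 5 concentrations. Step 3: Interpolate endpoints linearly; if unreached, use highest concentration. GI50 marks 50% less growth. TGI marks complete inhibition of growth.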

Tests used:
Experiment in all cases: NCI anticancer screen, dose series, 48 h
[1] = tested on: TK-10 renal
[2] = tested on: HCC-2998 colon
[3] = tested on: RXF 393 renal
[4] = tested on: SNB-75 CNS
[5] = tested on: CAKI-1 renal
[6] = tested on: SK-MEL-28 melanoma
[7] = tested on: SK-MEL-5 melanoma
[8] = tested on: HOP-92 NSCLC
[9] = tested on: K-562 leukemia
[10] = tested on: HT29 colon
[11] = tested on: SNB-19 CNS
[12] = tested on: SF-295 CNS
[13] = tested on: M14 melanoma
[14] = tested on: OVCAR-5 ovarian
[15] = tested on: UO-31 renal
[16] = tested on: PC-3 prostate
[17] = tested on: A549 NSCLC
[18] = tested on: MCF7 breast
[19] = tested on: LOX IMVI melanoma
[20] = tested on: U251 CNS
[21] = tested on: HS 578T breast
[22] = tested on: RPMI-8226 leukemia
[23] = tested on: ACHN renal
[24] = tested on: HCT-116 colon
[25] = tested on: MDA-MB-468 breast
[26] = tested on: T-47D breast
[27] = tested on: COLO 205 colon
[28] = tested on: OVCAR-3 ovarian
[29] = tested on: SF-268 CNS
[30] = tested on: IGROV1 ovarian
[31] = tested on: NCI-H460 lung
[32] = tested on: OVCAR-8 ovarian
[33] = tested on: SN12C renal
[34] = tested on: 786-0 renal
[35] = tested on: SR leukemia
[36] = tested on: UACC-257 melanoma
[37] = tested on: HCT-15 colon
[38] = tested on: MDA-MB-231 breast
[39] = tested on: MALME-3M melanoma
[40] = tested on: DU-145 prostate
[41] = tested on: HOP-62 NSCLC
[42] = tested on: MDA-MB-435
[43] = tested on: SK-MEL-2 melanoma
[44] = tested on: UACC-62 melanoma
[45] = tested on: NCI-H522 lung
[46] = tested on: NCI-H23 lung
[47] = tested on: A498 renal
[48] = tested on: KM12 colon
[49] = tested on: CCRF-CEM leukemia
[50] = tested on: SK-OV-3 ovarian
[51] = tested on: SW-620 colon
[52] = tested on: HL-60(TB) leukemia
[53] = tested on: OVCAR-4 ovarian
[54] = tested on: EKVX NSCLC
[55] = tested on: SF-539 CNS
[56] = tested on: MOLT-4 leukemia
[57] = tested on: BT-549 breast
[58] = tested on: NCI-H226 lung

Question: Which GI50 [1] does the source give for O=C(c1ccc(Cl)cc1)C1[C@H](c2ccccc2Br)[C@@H](c2ccccc2)NC12C(=O)Nc1ccc(Br)cc12 (stereo partly specified) here?
Answer: The GI50 was 20.4 µM.

Question: And the TGI [1]?
Answer: Its TGI is greater than 49 µM.

Question: What about the GI50 [2] of the same compound?
Answer: The GI50 was 8.14 µM.

Question: And the TGI [2]?
Answer: The TGI was 33.8 µM.

Question: What about the GI50 [3] of the same compound?
Answer: Its GI50 is 2.2 µM.

Question: And the TGI [3]?
Answer: The TGI was 23.3 µM.

Question: And the GI50 [4]?
Answer: The GI50 was 1.31 µM.

Question: And the TGI [4]?
Answer: Its TGI is greater than 49 µM.

Question: And the GI50 [5]?
Answer: Its GI50 is 1.88 µM.

Question: What about the TGI [5] of the same compound?
Answer: Its TGI is greater than 49 µM.

Question: And the GI50 [6]?
Answer: The GI50 was 20.3 µM.

Question: What about the TGI [6] of the same compound?
Answer: The TGI was greater than 49 µM.

Question: And the GI50 [7]?
Answer: Its GI50 is 10.6 µM.

Question: And the TGI [7]?
Answer: The TGI was 38 µM.

Question: What about the GI50 [8] of the same compound?
Answer: Its GI50 is 3.28 µM.

Question: What about the TGI [8] of the same compound?
Answer: The TGI was greater than 49 µM.

Question: What about the GI50 [9] of the same compound?
Answer: Its GI50 is 6.65 µM.

Question: And the TGI [9]?
Answer: The TGI was greater than 49 µM.

Question: What about the GI50 [10] of the same compound?
Answer: Its GI50 is 6.21 µM.

Question: What about the TGI [10] of the same compound?
Answer: The TGI was 17.2 µM.

Question: And the GI50 [11]?
Answer: Its GI50 is 23.2 µM.

Question: What about the TGI [11] of the same compound?
Answer: Its TGI is greater than 49 µM.

Question: What about the GI50 [12] of the same compound?
Answer: The GI50 was 12.2 µM.

Question: And the TGI [12]?
Answer: Its TGI is greater than 49 µM.

Question: And the GI50 [13]?
Answer: The GI50 was 7.81 µM.

Question: What about the TGI [13] of the same compound?
Answer: The TGI was 34.9 µM.

Question: And the GI50 [14]?
Answer: Its GI50 is 10.2 µM.

Question: What about the TGI [14] of the same compound?
Answer: Its TGI is greater than 49 µM.

Question: And the GI50 [15]?
Answer: Its GI50 is 4.83 µM.

Question: What about the TGI [15] of the same compound?
Answer: The TGI was greater than 49 µM.

Question: What about the GI50 [16] of the same compound?
Answer: The GI50 was 2.53 µM.

Question: What about the TGI [16] of the same compound?
Answer: Its TGI is 33.4 µM.

Question: And the GI50 [17]?
Answer: The GI50 was 4.84 µM.

Question: What about the TGI [17] of the same compound?
Answer: Its TGI is greater than 49 µM.

Question: And the GI50 [18]?
Answer: The GI50 was 2.64 µM.

Question: What about the TGI [18] of the same compound?
Answer: Its TGI is greater than 49 µM.

Question: What about the GI50 [19] of the same compound?
Answer: Its GI50 is 4.95 µM.

Question: What about the TGI [19] of the same compound?
Answer: The TGI was 13.5 µM.

Question: And the GI50 [20]?
Answer: The GI50 was 8.25 µM.

Question: What about the TGI [20] of the same compound?
Answer: Its TGI is 31.6 µM.

Question: What about the GI50 [21] of the same compound?
Answer: Its GI50 is 7.13 µM.

Question: What about the TGI [21] of the same compound?
Answer: Its TGI is greater than 49 µM.

Question: What about the GI50 [22] of the same compound?
Answer: Its GI50 is 8.15 µM.

Question: What about the TGI [22] of the same compound?
Answer: Its TGI is greater than 49 µM.

Question: What about the GI50 [23] of the same compound?
Answer: Its GI50 is 10 µM.

Question: And the TGI [23]?
Answer: Its TGI is greater than 49 µM.

Question: And the GI50 [24]?
Answer: The GI50 was 2.34 µM.

Question: What about the TGI [24] of the same compound?
Answer: Its TGI is 11.7 µM.

Question: What about the GI50 [25] of the same compound?
Answer: Its GI50 is 1.55 µM.

Question: What about the TGI [25] of the same compound?
Answer: The TGI was 14.2 µM.

Question: And the GI50 [26]?
Answer: Its GI50 is 3.88 µM.

Question: What about the TGI [26] of the same compound?
Answer: The TGI was greater than 49 µM.

Question: And the GI50 [27]?
Answer: Its GI50 is 7.1 µM.

Question: And the TGI [27]?
Answer: The TGI was 15.5 µM.

Question: And the GI50 [28]?
Answer: The GI50 was 5.07 µM.

Question: What about the TGI [28] of the same compound?
Answer: The TGI was 29.5 µM.

Question: What about the GI50 [29] of the same compound?
Answer: Its GI50 is 3.97 µM.

Question: What about the TGI [29] of the same compound?
Answer: Its TGI is greater than 49 µM.

Question: And the GI50 [30]?
Answer: The GI50 was 6.71 µM.

Question: And the TGI [30]?
Answer: The TGI was greater than 49 µM.

Question: What about the GI50 [31] of the same compound?
Answer: Its GI50 is 5.94 µM.

Question: What about the TGI [31] of the same compound?
Answer: The TGI was 15 µM.

Question: And the GI50 [32]?
Answer: The GI50 was 11 µM.

Question: And the TGI [32]?
Answer: The TGI was greater than 49 µM.

Question: What about the GI50 [33] of the same compound?
Answer: The GI50 was 5.33 µM.

Question: And the TGI [33]?
Answer: Its TGI is 14 µM.

Question: And the GI50 [34]?
Answer: Its GI50 is 18.4 µM.

Question: What about the TGI [34] of the same compound?
Answer: The TGI was greater than 49 µM.

Question: And the GI50 [35]?
Answer: Its GI50 is 3.01 µM.

Question: And the TGI [35]?
Answer: Its TGI is 18.7 µM.

Question: What about the GI50 [36] of the same compound?
Answer: The GI50 was 10 µM.

Question: And the TGI [36]?
Answer: Its TGI is greater than 49 µM.

Question: What about the GI50 [37] of the same compound?
Answer: The GI50 was 7.65 µM.

Question: What about the TGI [37] of the same compound?
Answer: Its TGI is greater than 49 µM.

Question: What about the GI50 [38] of the same compound?
Answer: The GI50 was 5.01 µM.

Question: And the TGI [38]?
Answer: Its TGI is 23 µM.

Question: And the GI50 [39]?
Answer: The GI50 was 13.1 µM.

Question: What about the TGI [39] of the same compound?
Answer: Its TGI is greater than 49 µM.

Question: And the GI50 [40]?
Answer: The GI50 was 9.36 µM.

Question: What about the TGI [40] of the same compound?
Answer: The TGI was greater than 49 µM.

Question: What about the GI50 [41] of the same compound?
Answer: Its GI50 is 15.6 µM.

Question: And the TGI [41]?
Answer: Its TGI is greater than 49 µM.

Question: And the GI50 [42]?
Answer: Its GI50 is 7.74 µM.

Question: What about the TGI [42] of the same compound?
Answer: Its TGI is 22.3 µM.

Question: What about the GI50 [43] of the same compound?
Answer: The GI50 was 7.37 µM.

Question: And the TGI [43]?
Answer: The TGI was greater than 49 µM.

Question: What about the GI50 [44] of the same compound?
Answer: Its GI50 is 6.59 µM.

Question: What about the TGI [44] of the same compound?
Answer: The TGI was greater than 49 µM.

Question: And the GI50 [45]?
Answer: Its GI50 is 2.44 µM.

Question: And the TGI [45]?
Answer: The TGI was 26.2 µM.

Question: And the GI50 [46]?
Answer: Its GI50 is 7.91 µM.

Question: And the TGI [46]?
Answer: Its TGI is greater than 49 µM.

Question: And the GI50 [47]?
Answer: The GI50 was greater than 49 µM.

Question: What about the TGI [47] of the same compound?
Answer: The TGI was greater than 49 µM.

Question: And the GI50 [48]?
Answer: The GI50 was 7.46 µM.

Question: What about the TGI [48] of the same compound?
Answer: The TGI was 23.4 µM.

Question: And the GI50 [49]?
Answer: The GI50 was 5.97 µM.

Question: What about the TGI [49] of the same compound?
Answer: Its TGI is 26.5 µM.

Question: What about the GI50 [50] of the same compound?
Answer: Its GI50 is 13.6 µM.

Question: What about the TGI [50] of the same compound?
Answer: The TGI was greater than 49 µM.

Question: What about the GI50 [51] of the same compound?
Answer: The GI50 was 9.5 µM.

Question: And the TGI [51]?
Answer: The TGI was greater than 49 µM.

Question: What about the GI50 [52] of the same compound?
Answer: The GI50 was 8.67 µM.

Question: What about the TGI [52] of the same compound?
Answer: Its TGI is 32.5 µM.

Question: And the GI50 [53]?
Answer: The GI50 was 10.1 µM.

Question: What about the TGI [53] of the same compound?
Answer: Its TGI is greater than 49 µM.

Question: What about the GI50 [54] of the same compound?
Answer: The GI50 was 13.3 µM.

Question: What about the TGI [54] of the same compound?
Answer: Its TGI is greater than 49 µM.

Question: And the GI50 [55]?
Answer: Its GI50 is greater than 49 µM.

Question: What about the TGI [55] of the same compound?
Answer: The TGI was greater than 49 µM.

Question: What about the GI50 [56] of the same compound?
Answer: The GI50 was 2.4 µM.

Question: And the TGI [56]?
Answer: The TGI was 25.2 µM.

Question: And the GI50 [57]?
Answer: The GI50 was 5.97 µM.

Question: And the TGI [57]?
Answer: The TGI was greater than 49 µM.

Question: And the GI50 [58]?
Answer: Its GI50 is 5.52 µM.

Question: What about the TGI [58] of the same compound?
Answer: The TGI was greater than 49 µM.
